Reference: PMC6891756, “Synthesis and Biological Evaluation of Novel Aminochalcones as Potential Anticancer and Antimicrobial Agents” (Molecules, 2019)
In brackets after ≈: the same amount, converted by molar mass.

How the values were obtained:
[1] = system: HT-29; assay: SRB antiproliferative assay, HT-29; format: cell-based, human; settings: Homo sapiens, HT-29; SRB, 48 h, 1–100 µg·mL^−1; ND = not detected in the tested concentration range
Protocol: (§1) Anticancer activity was evaluated using the sulforhodamine B assay (SRB) on four different human colon cancer cell lines: HT-29, LS180, LoVo and LoVo/DX and green monkey kidney fibroblasts COS7 (ATCC, Manassas, VA, USA). Cell lines HT-29 and COS7 were cultured in α-MEM medium (IIET PAS, Wrocław, Poland), LS180 in OptiMEM medium (IIET PAS), LoVo and LoVo/DX in mixture of α-MEM and OptiMEM medium (1:1 (v:v)). Each culture medium was supplemented with 10% fetal bovine serum, 2 mM glutamine, 100 μg·mL^−1 penicillin, 100 μg·mL^−1 streptomycin and 0.25 μg·mL^−1 amphotericin (all supplements purchased from Gibco (Paisley, UK). Cells were incubated at 37 °C, 5% CO2 in HeraCELL 150i incubator (Thermo Fisher Scientific, Waltham, MA, USA).
(§2) For the SRB assay, cells were seeded onto 96-well plates (Sarstedt, Nümbrecht, Germany) at a density of 5·10^3/well and cultured overnight as described above. Then, the growth medium was gently removed and replaced with fresh medium, supplemented with aminochalcone derivatives in the concentration ranging from 1 µg·mL^−1 to 100 µg·mL^−1. All stock solutions were prepared in DMSO at a concentration of 10 mg·mL^−1. Cells were incubated for 48 h and then the SRB assay was performed as described previously. Each experiment was performed in quadruplicate. The final results were reported as the IC50 values calculated for three independent experiments. Cisplatin (Acros Organics, Waltham, MA, USA) and doxorubicin (Fisher BioReagents, Waltham, MA, USA) were used as positive controls of the test.

[2] = system: LS180; assay: SRB antiproliferative assay, LS180; format: cell-based, human; settings: Homo sapiens, LS180, 48 h, 1–100 µg·mL^−1, ND = not detected in the tested concentration range
Protocol: as §1, §2

[3] = system: LoVo; assay: SRB antiproliferative assay, LoVo; format: cell-based, human; settings: Homo sapiens, LoVo, 48 h, 1–100 µg·mL^−1, ND = not detected in the tested concentration range
Protocol: as §1, §2

[4] = system: LoVo/DX; assay: SRB antiproliferative assay, LoVo/DX; format: cell-based, human; settings: Homo sapiens, LoVo/DX, 48 h, 1–100 µg·mL^−1, ND = not detected in the tested concentration range
Protocol: as §1, §2

[5] = SRB assay, normal fibroblasts COS7; format: cell-based, green monkey; settings: green monkey, COS7 kidney fibroblasts (normal cell line), ND = not detected in the tested concentration range
Protocol: as §1, §2

[6] = system: Escherichia coli ATCC10536; assay: Microbial growth curve screening, E. coli; format: cell-based; settings: 0.1% (w/v); for ∆OD E. coli: OD at 560 nm, control 1.61
Protocol: (§3) The antimicrobial screening tests were performed on two strains of bacteria: E. coli ATCC10536 and S. aureus DSM799, strain of yeast C. albicans DSM1386 and three strains of fungi: F. linii KB-F1, A. alternata CBS1526 and A. niger DSM1957. All microorganisms were obtained from the collection of the Faculty of Biotechnology and Food Microbiology, Wrocław University of Environmental and Life Sciences. The bacteria were cultured in nutrient broth (Biocorp, Warsaw, Poland), yeast and fungi in YM medium (3 g yeast extract, 3 g malt extract, 5 g bacteriological peptone and 10 g of glucose dissolved in 1 L of distilled water). The tests were carried out in 100-well microtiter plates. To each well 280 μL of culture medium, 10 μL of microorganism suspension and 10 μL of aminochalcone (1–18) dissolved in dimethyl sulfoxide (3% (w/v)) were added. The final concentration of the tested compound (1–18) was 0.1% (w/v). Each experiment were performed in 3 replications. The optical density of the cell suspension was measured on Bioscreen C (Automated Growth Curve Analysis System Lab System, Vantaa, Finland) at 560 nm automatically, at regular intervals of 30 min for 2–3 days. Cell cultures were maintained at 28 °C on a continuous shaker. To prepare the growth curves for each strain, the mean values of the absorbance in a function of time were used. The resulting antimicrobial activity was expressed as the increase of optical density (ΔOD) and was compared to that of the control cultures in the medium supplemented with dimethyl sulfoxide and also with reference substances: oxytetracycline (against bacteria), cycloheximide (against yeast) and nystatin (against fungi) (Sigma Aldrich).

[7] = system: Staphylococcus aureus DSM799; assay: Microbial growth curve screening, S. aureus; format: cell-based; settings: 0.1% (w/v); for ∆OD S. aureus: OD at 560 nm, control 1.67; for Lag-phase S. aureus: control 2.5 h
Protocol: as §3

[8] = system: Candida albicans DSM1386; assay: Microbial growth curve screening, C. albicans; format: cell-based; settings: 0.1% (w/v); for ∆OD C. albicans: OD at 560 nm, control 1.58; for Lag-phase C. albicans: control 3.0 h
Protocol: as §3

[9] = system: Alternaria alternata CBS1526; assay: Microbial growth curve screening, A. alternata; format: cell-based; settings: 0.1% (w/v); for ∆OD A. alternata: OD at 560 nm, control 1.86; for Lag-phase A. alternata: control 16.5 h
Protocol: as §3

[10] = system: Fusarium linii KB-F1; assay: Microbial growth curve screening, F. linii; format: cell-based; settings: 0.1% (w/v); for ∆OD F. linii: OD at 560 nm, control 1.95; for Lag-phase F. linii: control 13.5 h
Protocol: as §3

[11] = system: Escherichia coli ATCC10536; assay: MIC evaluation (broth method), E. coli; format: cell-based; settings: 48–72 h, read-out: Minimal inhibitory concentration E. coli
Protocol: (§4) Sterile 96-well microtiter plates (Sarstedt) with nutrient broth (for bacteria) (Biocorp) or YM medium (for yeast and filamentous fungi) were inoculated with a standardized cell suspension of bacteria and yeast or fungal spores of 10^5 cell·mL^−1, and supplemented with aminochalcones dissolved in DMSO. […] All analysis were conducted in triplicates. The plates were incubated at 30 °C (bacteria and yeast) or 25 °C (filamentous fungi) for 48–72 h. The results were measured with the Spark® Multimode Microplate Reader (Tecan, Männedorf, Switzerland) at a 560 nm wavelength. The minimal inhibitory concentration was defined as the lowest concentration of a tested compound that completely restricted the growth of the microorganism. In order to verify the obtained results, microbial cultures subjected to each concentration of aminochalcone were inoculated onto nutrient agar or YM plates and incubated as described above. The lack of growth on agar plate was a confirmation of the MIC of the tested compound. The resulting MIC values were compared with the reference substances: oxytetracycline (against bacteria), cycloheximide (against yeast) and nystatin (against fungi) (Sigma Aldrich).

[12] = system: Staphylococcus aureus DSM799; assay: MIC evaluation (broth method), S. aureus; format: cell-based; settings: 48–72 h, read-out: Minimal inhibitory concentration S. aureus
Protocol: as §4

[13] = system: Fusarium linii KB-F1; assay: MIC evaluation (broth method), F. linii; format: cell-based; settings: Fusarium, KBF1, 48–72 h, read-out: Minimal inhibitory concentration F. linii
Protocol: as §4

[14] = system: Aspergillus niger DSM1957; assay: Microbial growth curve screening, A. niger; format: cell-based; settings: 0.1% (w/v); for ∆OD A. niger: OD at 560 nm, control 2.14; for Lag-phase A. niger: control 11.0 h
Protocol: as §3

[15] = system: Alternaria alternata CBS1526; assay: MIC evaluation (broth method), A. alternata; format: cell-based; settings: Alternaria alternata, CBS1526, 48–72 h, read-out: Minimal inhibitory concentration A. alternata
Protocol: as §4

[16] = system: Aspergillus niger DSM1957; assay: MIC evaluation (broth method), A. niger; format: cell-based; settings: Aspergillus niger, DSM1957, 48–72 h, read-out: Minimal inhibitory concentration A. niger
Protocol: as §4

[17] = system: Candida albicans DSM1386; assay: MIC evaluation (broth method), C. albicans; format: cell-based; settings: DSM1386, broth method, 48–72 h, read-out: Minimal inhibitory concentration C. albicans
Protocol: as §4

Nc1ccc(C(=O)/C=C/c2ccc([N+](=O)[O-])cc2)cc1 [Compound 12, 4′-Amino-4-nitrochalcone]
IC50 [1]: 3.42 ± 0.54 µg/mL (≈ 12.7 µM) | IC50 [2]: 4.64 ± 0.54 µg/mL (≈ 17.3 µM) | IC50 [3]: 1.8 ± 0.1 µg/mL (≈ 6.71 µM) | IC50 [4]: 2 ± 0.12 µg/mL (≈ 7.46 µM) | IC50 at 48 h [5]: 3.1 ± 0.5 µg/mL (≈ 11.6 µM) | ∆OD E. coli [6]: 0.0 | ∆OD S. aureus [7]: 0.0 | ∆OD C. albicans [8]: 0.13 | Lag-phase C. albicans [8]: 12.0 h | ∆OD A. alternata [9]: 0.87 | Lag-phase A. alternata [9]: 13.0 h | ∆OD F. linii [10]: 0.0 | MIC [11]: 0.25 µg/mL (≈ 0.932 µM) | MIC [12]: 0.25 µg/mL (≈ 0.932 µM) | MIC [13]: 1 µg/mL (≈ 3.73 µM) | melting point: 205 to 207 °C

COc1cc(/C=C/C(=O)c2ccccc2N)ccc1OCc1ccccc1 [Compound 16, 2′-Amino-4-benzyloxy-3-methoxychalcone]
IC50 [1]: 4.85 ± 0.08 µg/mL (≈ 13.5 µM) | IC50 [2]: 6.64 ± 0.29 µg/mL (≈ 18.5 µM) | IC50 [3]: 5.77 ± 0.38 µg/mL (≈ 16.1 µM) | IC50 [4]: 4.59 ± 0.21 µg/mL (≈ 12.8 µM) | IC50 at 48 h [5]: 9.02 ± 0.17 µg/mL (≈ 25.1 µM) | ∆OD E. coli [6]: 0.0 | ∆OD S. aureus [7]: 0 | ∆OD C. albicans [8]: 0.66 | Lag-phase C. albicans [8]: 8.5 h | ∆OD A. alternata [9]: 0.64 | Lag-phase A. alternata [9]: 8.5 h | ∆OD F. linii [10]: 0 | ∆OD A. niger [14]: 0.41 | Lag-phase A. niger [14]: 40.5 h | MIC [11]: 0.5 µg/mL (≈ 1.39 µM) | MIC [12]: 0.5 µg/mL (≈ 1.39 µM) | MIC [13]: 0.5 µg/mL (≈ 1.39 µM)

COc1cc(/C=C/C(=O)c2cccc(N)c2)ccc1OCc1ccccc1 [Compound 17, 3′-Amino-4-benzyloxy-3-methoxychalcone]
IC50 [1]: 2.9 ± 0.27 µg/mL (≈ 8.07 µM) | IC50 [2]: 3.76 ± 0.38 µg/mL (≈ 10.5 µM) | IC50 [3]: 1.71 ± 0.13 µg/mL (≈ 4.76 µM) | IC50 [4]: 1.77 ± 0.09 µg/mL (≈ 4.92 µM) | IC50 at 48 h [5]: 3.45 ± 0.22 µg/mL (≈ 9.6 µM) | ∆OD E. coli [6]: 0.0 | ∆OD S. aureus [7]: 0.36 | Lag-phase S. aureus [7]: 33.5 h | ∆OD C. albicans [8]: 0.55 | Lag-phase C. albicans [8]: 9.0 h | ∆OD F. linii [10]: 0.24 | Lag-phase F. linii [10]: 11.0 h | MIC [11]: 0.125 µg/mL (≈ 0.348 µM) | MIC [15]: 1 µg/mL (≈ 2.78 µM) | MIC [16]: 1 µg/mL (≈ 2.78 µM) | melting point: 38 °C

Nc1cccc(C(=O)/C=C/c2ccc([N+](=O)[O-])cc2)c1 [Compound 11, 3′-Amino-4-nitrochalcone]
IC50 [1]: 2.77 ± 0.49 µg/mL (≈ 10.3 µM) | IC50 [2]: 2.89 ± 0.53 µg/mL (≈ 10.8 µM) | IC50 [3]: 1.34 ± 0.1 µg/mL (≈ 4.99 µM) | IC50 [4]: 1.36 ± 0.06 µg/mL (≈ 5.07 µM) | IC50 at 48 h [5]: 2.3 ± 0.45 µg/mL (≈ 8.57 µM) | ∆OD E. coli [6]: 0.0 | ∆OD S. aureus [7]: 0.0 | ∆OD A. alternata [9]: 0.55 | Lag-phase A. alternata [9]: 42.0 h | ∆OD F. linii [10]: 0.0 | ∆OD A. niger [14]: 0.83 | Lag-phase A. niger [14]: 39.5 h | MIC [11]: 1000 µg/mL (≈ 3730 µM) | MIC [12]: 0.25 µg/mL (≈ 0.932 µM) | MIC [17]: 0.25 µg/mL (≈ 0.932 µM) | MIC [13]: 0.5 µg/mL (≈ 1.86 µM) | MIC [16]: 1 µg/mL (≈ 3.73 µM) | melting point: 166 to 168 °C

CCc1ccc(/C=C/C(=O)c2ccc(N)cc2)cc1 [Compound 6, 4′-Amino-4-ethylchalcone]
IC50 [1]: 3.61 ± 0.21 µg/mL (≈ 14.4 µM) | IC50 [2]: 5.2 ± 0.3 µg/mL (≈ 20.7 µM) | IC50 [3]: 4.26 ± 0.19 µg/mL (≈ 16.9 µM) | IC50 [4]: 3.68 ± 0.3 µg/mL (≈ 14.6 µM) | IC50 at 48 h [5]: 7.16 ± 0.34 µg/mL (≈ 28.5 µM) | ∆OD E. coli [6]: 0.16 | Lag-phase E. coli ([6]; control 4.0 h): 3.5 h | ∆OD S. aureus [7]: 0.87 | Lag-phase S. aureus [7]: 28.0 h | ∆OD C. albicans [8]: 0.44 | Lag-phase C. albicans [8]: 9.5 h | ∆OD F. linii [10]: 0.40 | Lag-phase F. linii [10]: 9.0 h | ∆OD A. niger [14]: 0.41 | Lag-phase A. niger [14]: 36.5 h | MIC [15]: 1 µg/mL (≈ 3.98 µM) | melting point: 125 °C

Nc1ccccc1C(=O)/C=C/c1ccc(C(=O)O)cc1 [Compound 7, 2′-Amino-4-carboxychalcone]
IC50 [1]: 4.26 ± 0.13 µg/mL (≈ 15.9 µM) | IC50 [2]: 7.86 ± 0.35 µg/mL (≈ 29.4 µM) | IC50 [3]: 7.68 ± 0.34 µg/mL (≈ 28.7 µM) | IC50 [4]: 11.1 ± 0.44 µg/mL (≈ 41.5 µM) | IC50 at 48 h [5]: 7.78 ± 0.75 µg/mL (≈ 29.1 µM) | ∆OD E. coli [6]: 0.0 | ∆OD S. aureus [7]: 0.0 | ∆OD F. linii [10]: 0.37 | Lag-phase F. linii [10]: 26.0 h | MIC [11]: 0.125 µg/mL (≈ 0.468 µM) | MIC [12]: 0.125 µg/mL (≈ 0.468 µM) | MIC [17]: 0.125 µg/mL (≈ 0.468 µM) | MIC [15]: 0.5 µg/mL (≈ 1.87 µM) | MIC [16]: 0.125 µg/mL (≈ 0.468 µM) | melting point: 188 to 191 °C
